“And” between values parts separate entries of the source, which are not always exact repeats. Equal values may be shown once.
How the values were obtained:
K562 cells = assay: K562 cell survival after incubation with labelled iodoHoechst 33258; type: cell-based, human; settings: 500 nM for 1 hour at 37° C., decays accumulated at 5° C. for 24 hours
Experimental: Cells (5×10^5/ml) in RPMI-1640 medium containing 10% FBS and gentamicin were incubated with varying specific activities of ^127I/^123I-iodoHoechst 33258 (500 nM) for 1 hour at 37° C. Following incubation the cells were separated from the supernatant by 3 centrifugation (400×g for 3 minutes)-wash cycles. The cell pellets were suspended in RPMI medium and ^123I-decays were accumulated at 5° C. for 24 hours. Following accumulation of decays, the cell-pellets were isolated by centrifugation at 400×g for 3 minutes, suspended in AMEM containing 20% FBS and an appropriate cell number from each of the samples was cloned in semi-solid (0.33% (w/v)) noble agar in 6-well microtiter plates, as discussed above.

plasmid DNA = assay: Plasmid DNA breakage, ^123I/^125I double isotope method; type: biochemical
Text: The experimental design exploits the plasmid DNA assay system, and agarose gel electrophoresis, as described previously to evaluate DNA breakage by the labelled minor groove binding DNA ligand, ^125I-iodoHoechst 33258 (Lobachevsky, Karagiannis and Martin 2004).
The accumulation of DNA single-stranded breaks and DNA double-stranded breaks is monitored by quantitation of the decline in the fraction of intact supercoiled plasmid (S), and the corresponding increase in the fractions of relaxed (R) and linear (L) species, with the progressive accumulation of decay events. Various assumptions enable the derivation of the relationship between the parameters S, R and L (or their normalised counterparts S′, R′ and L′), the number of decay events (n), and for example, the yield of double-stranded breaks per decay (d) of isotope in DNA-bound ligand. […] Accordingly, a double isotope strategy was developed, using a mixture of ^123I- and ^125I-iodoHoechst 33258. This approach yields a ratio d values, providing an estimate of the relative efficiency (^123I relative to ^125I) for double-strand breaks per decay, which is independent of f.
The basis of the double isotope method is apparent from the following relationship:
Where n1 is the number of ^123I decays, and n1m is the maximum (ie at time=infinity) number of ^123I decays.
A plot of the LHS term of the above equation versus n2 (the number of ^125I decay events in the incubation mixture) yields a two phase curve, the 2nd phase of which approaches a straight line (when n1=n1m). The values for the apparent breakage DNA dsb efficiency of ^123I and ^125I decays (da1 and da2, respectively) are obtained from the y intercept and from the gradient of the asymptote of the second phase of the curve, as shown in FIG. 14.
The apparent breakage efficiency is related to the actual efficiency of DNA-bound decay events, d, by the expression: da=df+δA
Where δA is the term for the “external” component of damage, arising from decay of non-DNA-bound isotope, which can be ignored because of the particular conditions of the
[formula] experiment, particularly, a low DNA concentration, A. Thus analysis of the data as exemplified in FIG. 14 provides the ratio of breakage efficiencies of ^123I versus ^125I decays.

CN1CCN(c2ccc3nc(-c4ccc5nc(-c6ccc(O)c(I)c6)[nH]c5c4)[nH]c3c2)CC1 [^123I-iodoHoechst 33258]
decays required for a lethal event (K562 cells): about 230 ^123I-decays per cell
da1(^123I), apparent DNA dsb breakage efficiency (plasmid DNA; DMSO added to 10% (D series)): 0.158 and 0.170 and 0.159
da1(^123I)/da2(^125I) (plasmid DNA; DMSO added to 10% (D series)): 0.63 and 0.69 and 0.62
Average da1(^123I)/da2(^125I) (plasmid DNA; DMSO added to 10% (D series), samples D1.2-D3.2): 0.65 ± 0.03
da1(^123I), apparent DNA dsb breakage efficiency (plasmid DNA; aqueous buffer (N series)): 0.244 and 0.253 and 0.314
da1(^123I)/da2(^125I) (plasmid DNA; aqueous buffer (N series)): 0.59 and 0.64 and 0.66
Average da1(^123I)/da2(^125I) (plasmid DNA; aqueous buffer (N series), samples N1.2-N3.2): 0.63 ± 0.03

From US8097238B2, “Cell targeting conjugates” (Peter MacCallum Cancer Institute, priority 2004, dated 2012)
